Columns and labels:
Assay type in all cases: biochemical
[1] = Activity against free radicals, Method A (DPPH° test); conditions: optical density at 513 nm
Method: (§1) The effectiveness of the test substances against free radicals was tested by various chemical and biochemical methods: • Method A A first test was carried out using diphenylpicrylhydrazyl (DPPH°) which is a relatively stable radical that forms a purple-colored solution. The optical density (DO) at 513 nm was determined. • Method B Hydroxyl radicals were released from hydrogen peroxide in the presence of iron(II) ions and EDTA and were used to oxidize deoxyribose. The oxidation product forms a pink-colored compound with thiobarbituric acid. Its concentration corresponds to the optical density at 532 nm. […] The superoxide anions dismute into hydrogen peroxide and oxygen either spontaneously or in the presence of Superoxid Dismutase. The quantity of superoxide anion can be determined by NBT reduction via the optical density at 490 nm. A test was conducted to determine whether fewer superoxide anions are generated or more anions are destroyed in the presence of the test substances. The results are set out in Table 1 and represent the EC50 values in % (w/v).

[2] = Activity against free radicals, Method C (deoxyribose oxidation in the absence of EDTA); conditions: as Method B in the absence of EDTA
Method: as §1

[3] = Activity against free radicals, Method D (xanthine oxidase, NBT reduction); conditions: optical density at 490 nm
Method: as §1

[4] = Activity against free radicals, Method B (hydroxyl radicals, deoxyribose oxidation with EDTA); conditions: hydrogen peroxide, iron(II) ions and EDTA, optical density at 532 nm
Method: as §1

Effect against free radicals, Method A, EC50 [1]	Effect against free radicals, Method C, EC50 [2]	Effect against free radicals, Method D, EC50 [3]	Effect against free radicals, Method B, EC50 [4]	Compound
0.0013 % (w/v)	0.9 % (w/v)	0.591 % (w/v)	0.261 % (w/v)	O=C1O[C@H]([C@@H](O)CO)C(O)=C1O [Ascorbic acid]
0.0067 % (w/v)		No effect		Tocopherol
